# Test system: 922993-354-T-J3-PDC complex spheroids, viability, % test/control
# Assay: Anticancer human tumor 922993-354-T-J3-PDC patient-derived endometrial carcinoma cell line growth inhibition [CLK]
# Conditions: for IC50: curve of first compound; for viability, T/C: stronger effect = lower value
# Method in brief: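 Patient-derived tumor cells grown as complex spheroids with HUVEC endothelial cells and mesenchymal stem cells, treated with drug combinations. Concentrations descend in half-log steps from near clinical Cmax, or from 10 microM if Cmax unknown.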
# [1] = second compound 0.0316 µM, first compound 0.0316 µM
# [2] = second compound 0.0316 µM, first compound 0.1 µM
# [3] = second compound 0.0316 µM, first compound 0.316 µM
# [4] = second compound 0.0316 µM, first compound 1 µM
# [5] = second compound 0.0316 µM, first compound 3.16 µM
# [6] = second compound 0.0316 µM, first compound 10 µM
# [7] = second compound 0.1 µM, first compound 0.0316 µM
# [8] = second compound 0.1 µM, first compound 0.1 µM
# [9] = second compound 0.1 µM, first compound 0.316 µM
# [10] = second compound 0.1 µM, first compound 1 µM
# [11] = second compound 0.1 µM, first compound 3.16 µM
# [12] = second compound 0.1 µM, first compound 10 µM
# [13] = second compound 0.316 µM, first compound 0.0316 µM
# [14] = second compound 0.316 µM, first compound 0.1 µM
# [15] = second compound 0.316 µM, first compound 0.316 µM
# [16] = second compound 0.316 µM, first compound 1 µM
# [17] = second compound 0.316 µM, first compound 3.16 µM
# [18] = second compound 0.316 µM, first compound 10 µM
# [19] = second compound 1 µM, first compound 0.0316 µM
# [20] = second compound 1 µM, first compound 0.1 µM
# [21] = second compound 1 µM, first compound 0.316 µM
# [22] = second compound 1 µM, first compound 1 µM
# [23] = second compound 1 µM, first compound 3.16 µM
# [24] = second compound 1 µM, first compound 10 µM
# [25] = second compound 3.16 µM, first compound 0.0316 µM
# [26] = second compound 3.16 µM, first compound 0.1 µM
# [27] = second compound 3.16 µM, first compound 0.316 µM
# [28] = second compound 3.16 µM, first compound 1 µM
# [29] = second compound 3.16 µM, first compound 3.16 µM
# [30] = second compound 3.16 µM, first compound 10 µM
# [31] = second compound 10 µM, first compound 0.0316 µM
# [32] = second compound 10 µM, first compound 0.1 µM
# [33] = second compound 10 µM, first compound 0.316 µM
# [34] = second compound 10 µM, first compound 1 µM
# [35] = second compound 10 µM, first compound 3.16 µM
# [36] = second compound 10 µM, first compound 10 µM
# 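Note: spheroids exposed to the agents for 7 days before readout.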
compound,measurement,setting,value
C#Cc1c(F)ccc2cc(O)cc(-c3ncc4c(N5CC6CCC(C5)N6)nc(OCC56CCCN5CC(F)C6)nc4c3F)c12 (stereo unspecified) + CNC(=O)c1ccc(Nc2nc(OC3CCCC3)c3c(-c4ccc5nc(C)oc5c4)c[nH]c3n2)c(OC)c1,IC50,second compound 0.0316 µM,> 10 µM
same,IC50,second compound 0.1 µM,> 10 µM
same,IC50,second compound 0.316 µM,> 10 µM
same,IC50,second compound 1 µM,< 0.0316 µM
same,IC50,second compound 3.16 µM,< 0.0316 µM
same,IC50,second compound 10 µM,< 0.0316 µM
same,"viability, T/C",[1],115%
same,"viability, T/C",[2],98.5%
same,"viability, T/C",[3],103%
same,"viability, T/C",[4],101%
same,"viability, T/C",[5],115%
same,"viability, T/C",[6],94.1%
same,"viability, T/C",[7],94.9%
same,"viability, T/C",[8],95.2%
same,"viability, T/C",[9],116%
same,"viability, T/C",[10],107%
same,"viability, T/C",[11],109%
same,"viability, T/C",[12],97.5%
same,"viability, T/C",[13],61.4%
same,"viability, T/C",[14],64.5%
same,"viability, T/C",[15],63%
same,"viability, T/C",[16],61.8%
same,"viability, T/C",[17],57.1%
same,"viability, T/C",[18],45.6%
same,"viability, T/C",[19],39.5%
same,"viability, T/C",[20],40.6%
same,"viability, T/C",[21],35.5%
same,"viability, T/C",[22],37%
same,"viability, T/C",[23],40.8%
same,"viability, T/C",[24],35.8%
same,"viability, T/C",[25],29.7%
same,"viability, T/C",[26],29.4%
same,"viability, T/C",[27],29.8%
same,"viability, T/C",[28],30.4%
same,"viability, T/C",[29],34.3%
same,"viability, T/C",[30],36.2%
same,"viability, T/C",[31],30.9%
same,"viability, T/C",[32],29.4%
same,"viability, T/C",[33],30.5%
same,"viability, T/C",[34],33.2%
same,"viability, T/C",[35],33.1%
same,"viability, T/C",[36],31.5%
C=C(F)C(=O)N1CCN(c2nc(OCC3CCCN3C)nc3c2CCN(c2cccc4cccc(Cl)c24)C3)CC1CC#N (stereo unspecified) + CNC(=O)c1ccc(Nc2nc(OC3CCCC3)c3c(-c4ccc5nc(C)oc5c4)c[nH]c3n2)c(OC)c1,IC50,second compound 0.0316 µM,5.65 µM
same,IC50,second compound 0.1 µM,5.63 µM
same,IC50,second compound 0.316 µM,3.48 µM
same,IC50,second compound 1 µM,< 0.0316 µM
same,IC50,second compound 3.16 µM,< 0.0316 µM
same,IC50,second compound 10 µM,< 0.0316 µM
same,"viability, T/C",[1],109%
same,"viability, T/C",[2],99.7%
same,"viability, T/C",[3],97.5%
same,"viability, T/C",[4],105%
same,"viability, T/C",[5],94.8%
same,"viability, T/C",[6],6.03%
same,"viability, T/C",[7],89.8%
same,"viability, T/C",[8],104%
same,"viability, T/C",[9],90.7%
same,"viability, T/C",[10],91.9%
same,"viability, T/C",[11],103%
same,"viability, T/C",[12],4.38%
same,"viability, T/C",[13],61.1%
same,"viability, T/C",[14],50.1%
same,"viability, T/C",[15],58.1%
same,"viability, T/C",[16],44%
same,"viability, T/C",[17],57.4%
same,"viability, T/C",[18],3.61%
same,"viability, T/C",[19],36.6%
same,"viability, T/C",[20],36.2%
same,"viability, T/C",[21],32.7%
same,"viability, T/C",[22],38.5%
same,"viability, T/C",[23],47%
same,"viability, T/C",[24],0.95%
same,"viability, T/C",[25],28.3%
same,"viability, T/C",[26],32%
same,"viability, T/C",[27],29.9%
same,"viability, T/C",[28],31.3%
same,"viability, T/C",[29],36.6%
same,"viability, T/C",[30],4.89%
same,"viability, T/C",[31],29%
same,"viability, T/C",[32],33.1%
same,"viability, T/C",[33],30.9%
same,"viability, T/C",[34],29.8%
same,"viability, T/C",[35],38%
same,"viability, T/C",[36],5.43%
CC(CO)NC(=O)c1cc(-c2ccc(Cl)cc2)nn(-c2cnn(C)c2)c1=O (stereo unspecified) + CNC(=O)c1ccc(Nc2nc(OC3CCCC3)c3c(-c4ccc5nc(C)oc5c4)c[nH]c3n2)c(OC)c1,IC50,second compound 0.0316 µM,> 10 µM
same,IC50,second compound 0.1 µM,> 10 µM
same,IC50,second compound 0.316 µM,> 10 µM
same,IC50,second compound 1 µM,< 0.0316 µM
same,IC50,second compound 3.16 µM,< 0.0316 µM
same,IC50,second compound 10 µM,< 0.0316 µM
same,"viability, T/C",[1],108%
same,"viability, T/C",[2],100%
same,"viability, T/C",[3],101%
same,"viability, T/C",[4],101%
same,"viability, T/C",[5],102%
same,"viability, T/C",[6],98.6%
same,"viability, T/C",[7],113%
same,"viability, T/C",[8],102%
same,"viability, T/C",[9],91.3%
same,"viability, T/C",[10],103%
same,"viability, T/C",[11],118%
same,"viability, T/C",[12],75.4%
same,"viability, T/C",[13],59%
same,"viability, T/C",[14],57.4%
same,"viability, T/C",[15],56.9%
same,"viability, T/C",[16],48%
same,"viability, T/C",[17],59.3%
same,"viability, T/C",[18],57.8%
same,"viability, T/C",[19],38.9%
same,"viability, T/C",[20],34%
same,"viability, T/C",[21],33.5%
same,"viability, T/C",[22],39.9%
same,"viability, T/C",[23],47.7%
same,"viability, T/C",[24],34.3%
same,"viability, T/C",[25],30.5%
same,"viability, T/C",[26],31%
same,"viability, T/C",[27],30%
same,"viability, T/C",[28],30.9%
same,"viability, T/C",[29],37.9%
same,"viability, T/C",[30],36%
same,"viability, T/C",[31],34.2%
same,"viability, T/C",[32],30.3%
same,"viability, T/C",[33],29.9%
same,"viability, T/C",[34],26.9%
same,"viability, T/C",[35],32.5%
same,"viability, T/C",[36],30.7%

# Source: PubChem BioAssay AID2060606 (Molecular Pharmacology Branch, DTP, NCI, 2025)
